In patent publication US10723778B2, “Variants of adrenomedullin and calcitonin gene-related peptide and methods of use” (The Board of Regents of the University of Oklahoma, priority 2015, dated 2020):
Where no end group is shown, it is not given here.

Assays:
[1] = biological target: T1, membranes of SK-N-MC cells, which express the CGRP receptor (Homo sapiens, UniProt O60894+Q16602); details: read-out: IC50 reported for binding to membranes of SK-N-MC cells; cited from earlier work
T1 construct: membranes of SK-N-MC cells, which express the CGRP receptor; host or cells: SK-N-MC cell membranes (endogenous receptor)

[2] = biological target: T2, RAMP1-CLR ECD (CGRP); purified MBP-RAMP1 ECD-(GS)5-CLR ECD-H6 fusion protein (Homo sapiens, UniProt O60894+Q16602); experiment: Fluorescence polarization (FP) peptide binding competition assay, CGRP receptor ECD complex; details: for Receptor Selectivity (in words): CGRP vs AM1 receptor ECD complexes; for Receptor Selectivity (in words) / Receptor Selectivity, fold for CGRP: FP assay; for Ki: RAMP1-CLR ECD (CGRP) KI (nM), FP competition, FITC-AM W/W probe 7 nM, fusion protein 15 nM; for Receptor Selectivity, fold for CGRP: CGRP (RAMP1-CLR ECD) over AM1 (RAMP2-CLR ECD)
T2 construct: MBP-hRAMP1.24-111-(Gly-Ser)5-hCLR.29-144-H6; made in house; host or cells: E. coli
Method: Fluorescence polarization peptide binding assay. […] The reactions (50 μL) were incubated for 2 hours at room temperature to reach equilibrium, and the anisotropy was measured in black half-area 96-well plates using a BMG LABTECH's POLARstar® Omega plate reader (Ortenberg, Germany). The reaction buffer was 50 mM HEPES, pH 7.5, 150 mM NaCl, 0.5 mg/ml fatty acid-free BSA, 0.5 mM EDTA, 0.5 mM maltose. Ki values were calculated using nonlinear regression fitting of the competition curves to the exact analytical equations of Roehrl et al. (Biochemistry (2004) 43:16056-66) using GraphPad Prism 5.0 (GraphPad Software, San Diego Calif.).
(§1) The ability of the indicated peptides to displace a FITC-Ahx-AM(37-52)NH2 [S45W, Q50W] probe (7 nM) from purified MBP-RAMP1 ECD-(GS)5-CLR ECD-H6 fusion protein (15 nM) was assessed by fluorescence polarization (anisotropy). The reactions were incubated for 2 hours at room temperature to reach equilibrium, and the anisotropy was measured in black half-area 96-well plates using a BMG LABTECH's POLARstar® Omega plate reader (Ortenberg, Germany). The reaction buffer was 50 mM HEPES, pH 7.5, 150 mM NaCl, 0.5 mg/ml fatty acid-free BSA, 0.5 mM EDTA, 0.5 mM maltose. KI values were calculated using nonlinear regression fitting of the competition curves to the exact analytical equations of Roehrl et al. (Biochemistry (2004) 43:16056-66) using GraphPad Prism 5.0 (GraphPad Software, San Diego Calif.).
as §1, with “Single representative experiments conducted with duplicate samples are shown. Error bars are S.E.M. The ability” for “The ability”, “displace a FITC-Ahx-AM(37-52)NH2[S45W, Q50W] probe” for “displace a FITC-Ahx-AM(37-52)NH2 [S45W, Q50W] probe”
A fluorescence polarization/anisotropy (FP) peptide-binding assay was developed using N-terminally FITC-labeled AM(37-52) S45W/Q50W as the probe, hereafter “FITC-AM W/W.” The probe was custom synthesized and HPLC-purified by RS Synthesis. The large size difference between the MBP-RAMP ECD-CLR ECD fusion proteins (˜65 kDa) and the probe (˜2.5 kDa) ensures a significant anisotropy difference between bound and free states of the probe. […] Kd values for the probe at each of the tethered ECD fusion proteins were determined in equilibrium saturation binding experiments (data not shown), and KI values were determined for unlabeled peptides in equilibrium competition experiments (Table 1; FIGS. 2-5). The data were analyzed according to exact analytical equations using non-linear regression curve fitting in GraphPad Prism 5.0 (GraphPad Software) via user-defined equations.

[3] = biological target: T3, RAMP2-CLR ECD (Homo sapiens, UniProt O60895+Q16602, L106R); experiment: AlphaLISA/AlphaScreen competition peptide binding assay, AM1 receptor ECD complex
T3 construct: MBP-hRAMP2.55-140 [L106R]-(Gly-Ser-Ala)3-hCLR.29-144-H6; made in house; host or cells: E. coli
Method: Protein production and characterization and peptides. Plasmid construction, mutagenesis, protein expression, purification, and the AlphaScreen® peptide binding assay (Perkin-Elmer, Waltham, Mass.) were performed as previously described with minor modifications to the AlphaScreen® assay (Hill and Pioszak, Protein expression and purification (2013) 88:107-113; and Moad and Pioszak, Protein Sci. (2013) 22:1775-85). Synthetic peptides were from RS Synthesis (Louisville, Ky.), Bachem (Bubendorf, Switzerland), or were synthesized in-house. […]
FIG. 1 depicts in (B) binding of an AM C-terminal peptide, AM(37-52)NH2, and the two variant AM C-terminal peptides to purified AM1 receptor extracellular domain complex (CLR:RAMP2). The ability of the indicated peptides to displace a Biotin-CGRP probe (50 nM) from purified MBP-RAMP1 ECD-(GS)5-CTR ECD-H6 fusion protein (5 nM) or a Biotin-AM probe (25 nM) from purified MBP-RAMP2 ECD [L106R]-(GS)5-[…] ECD-H6 fusion protein (5 nM) was assessed by AlphaLISA® luminescent peptide binding assay (Perkin-Elmer, Waltham, Mass.). […] The reactions were incubated for 5 hours at room temperature to reach equilibrium, and the luminescence was measured in white 384-well plates using a BMG LABTECH's POLARstar Omega plate reader (Ortenberg, Germany). […]

[4] = biological target: T4, full-length AM1 (RAMP2:CLR) receptor transiently expressed in COS-7 cells (Homo sapiens, UniProt O60895+Q16602); experiment: Antagonism of AM-activated cAMP signaling in COS-7 cells; format: cell-based; details: 500 nM antagonist
T4 construct: Plasmids for expression of tagged full-length CLR and RAMP1 or RAMP2 receptors in mammalian cells were previously described; expressed in transfected cells; host or cells: COS-7
Method: (§2) Cell-based assays. Transfection of COS-7 cells, cAMP assay, ELISA for cell surface expression, and data analysis were as previously described (Barwell et al., Peptides (2010) 31:170-176; Watkins et al., Br J Pharmacol (2014) 171:772-788).
(§3) A single representative experiment conducted with duplicate samples is shown. Error bars are S.E.M. The experiments were performed as described in Lee et al. (J Biol. Chem (2016) 291:8686-8700). […] (B) depicts antagonism of AM-activated cAMP signaling at the AM1 receptor.
(§4) Forty-eight hours after transfection, the cells were pre-incubated for 30 minutes in the absence or presence of 500 nM AM(37-52)NH2 [S45W/K46L/Q50W/Y52F], and then stimulated for 15 minutes with increasing concentrations of agonist peptide in the absence or presence of 500 nM antagonist. The cells were lysed, and cAMP was quantitated using a LANCE TR-FRET cAMP kit (Perkin-Elmer Waltham, Mass.).

[5] = biological target: T5, full-length CGRP (RAMP1:CLR) receptor transiently expressed in COS-7 cells (Homo sapiens, UniProt O60894+Q16602); experiment: Antagonism of CGRP-activated cAMP signaling in COS-7 cells; format: cell-based
T5 construct: Plasmids for expression of tagged full-length CLR and RAMP1 or RAMP2 receptors in mammalian cells were previously described; expressed in transfected cells; host or cells: COS-7
Method: as §2, §3, §4

[6] = biological target: T6, AMY1 receptor extracellular domain complex; purified MBP-RAMP1 ECD-(GS)5-CTR ECD-H6 fusion protein (Homo sapiens, UniProt O60894+P30988); experiment: AlphaLISA luminescent peptide binding assay, AMY1 receptor ECD complex; details: displacement of Biotin-AC413 probe (100 nM), fusion protein 200 nM
T6 construct: purified MBP-RAMP1 ECD-(GS)5-CTR ECD-H6 fusion protein (200 nM); made in house; host or cells: HEK293T
Method: A single representative experiment conducted with duplicate samples is shown. Error bars are S.E.M. The ability of the indicated peptides to displace a Biotin-AC413 probe (100 nM) from purified MBP-RAMP1 ECD-(GS)5-CTR ECD-H6 fusion protein (200 nM) was assessed by AlphaLISA® luminescent peptide binding assay (Perkin-Elmer, Waltham, Mass.) as described in Lee et al. (J Biol. Chem (2016) 291:8686-8700). The reactions were incubated for 5 hours at room temperature to reach equilibrium, and the luminescence was measured in white 384-well plates using a BMG LABTECH's POLARstar® Omega plate reader (Ortenberg, Germany). The reaction buffer was 50 mM MOPS, pH 7.4, 150 mM NaCl, 7 mg/ml fatty acid-free BSA and the streptavidin-coated donor beads and MBP-antibody coated acceptor beads were at 15 μg/ml each. IC50 values were calculated using nonlinear regression fitting of the competition curves to a three-parameter, one-site competitive binding equation in GraphPad Prism 5.0 (GraphPad Software, San Diego Calif.).

In the case of CC(C)[C@H](NC(=O)[C@H](CC(=O)O)NC(=O)[C@@H](NC(=O)[C@@H]1CCCN1C(=O)[C@@H](NC(=O)[C@@H](N)Cc1ccccc1)C(C)C)[C@@H](C)O)C(=O)NCC(=O)N1CCC[C@H]1C(=O)N[C@@H](Cc1ccccc1)C(=O)N[C@@H](C)C(=O)N[C@@H](Cc1ccccc1)C(N)=O [CGRPmut [N31D/S34P/K35F]], the IC50 [1] is given as 29 nM.

For “DKDNVAPRSKISPQGY-NH2 [WT, reference compound]”, the “Receptor Selectivity (in words)” value [2] was “AM1 over CGRP”, the Ki [2] was > 100000 nM and the IC50 ([3]; read-out: IC50 in AlphaLISA or AlphaScreen competition assays, RAMP2-CLR ECD) was 5000 to 15000 nM.

For DKDNVAPRSKISPWGY-NH2 [Peptide Q50W], the “Receptor Selectivity (in words)” value [2] was “Non-selective”, the Ki [2] was 501 nM and the “fold increased affinity for RAMP2-CLR ECD” value ([3]; competition assays, relative to AM(37-52)NH2) was ~100 fold.

In the case of “DKDNVAPRWLISPWGF-NH2 [S45W/K46L/Q50W/Y52F]”, the “antagonism of the AM1 receptor (cAMP)” value [4] is reported as “did not antagonize the AM1 receptor”, the “Receptor Selectivity, fold for CGRP” value [2] is reported as 2131-fold for CGRP and the “Receptor Selectivity, fold for CGRP” value ([2]; listed as AM(37-52)NH2 [S45W/K46L/Q50W/Y52F]) is reported as > 2000 fold. For the same compound, the Ki [2] was 1.91 nM, the Kb [5] was 10.5 nM and the “pA2, antagonism of CGRP-activated cAMP signaling at the CGRP receptor” value ([5]; 500 nM antagonist, COS-7 cells, Gaddum/Schild EC50 shift, slopes constrained to 1) was ~8. The “affinity for the intact CGRP receptor suggested by pA2” value ([5]; COS-7 cells) was ~10 nM and the IC50 [6] was 16000 nM.

In the case of FVPTDVGPWSF-NH2 [N31D/S34P/K35W/A36S], the “Receptor Selectivity, fold for CGRP” value [2] is reported as 1856-fold for CGRP, the Ki [2] is reported as 1.32 nM and the IC50 [6] is reported as 260 nM.
